{"source": "patent US8946158B2", "about": "“Treatments of gastrointestinal disorders” (Ironwood Pharmaceuticals, Inc., priority 2009, dated 2015)", "key": {"[1]": {"assay": "In vitro metabolism in mouse jejunum loop fluid", "format": "in vitro ADME", "conditions": "for Rate of degradation relative to peptide 2: mouse intestinal fluid", "procedure": "The purpose of this study was to determine the stability of phosphorylated peptides in mouse jejunal loop fluid. […] The isotopically labeled peptide 2 was synthesized with ^13C, ^15N-labeled alanine and leucine (i.e., with a sequence CCpS[^13C6,^15N]LCCNP[^13C6,^15N]ACTGC (SEQ ID NO:16)).\nEach peptide was synthesized by American Peptide Company, Inc., and was stored desiccated at −20° C. A 1 mg/mL solution for each of the non-labeled peptides was prepared in 1 M tris(hydroxymethyl)aminomethane hydrochloride (Tris-HCl), pH 8 just prior to conducting the mouse intestinal loop fluid assay. A 500 ng/mL solution of ^13C, ^15N-labeled peptide 2 was prepared in 0.1% formic acid in water and was utilized to dilute the jejunum samples for post-assay LC-MS/MS analysis.\nTo collect the fluid, mice were fasted overnight with full access to water. They were then anesthetized with isofluorane for surgery and subjected to laparotomy in which the small intestine was exteriorized. Jejunum loops of 3 to 4 cm in length were made with sutures starting at 7 cm from the pyloric sphincter of the stomach. Once the loops were formed, they were injected with 200 μL of phosphate buffered saline (PBS) buffer (10 mM, pH 7.4). The abdominal wall and skin of the animals were then sutured, and the animals were allowed to recover for 30 minutes. Following recovery, the animals were sacrificed, the loops were then excised and the fluid inside was recovered and stored at −80° C. until use.\nFor each peptide, 25 μL of the 1 mg/mL peptide stock solution was added to 25 μL of 1 M Tris-HCl and 25 μL of 10× calf intestinal phosphatase (CIP) buffer containing 500 mM Tris-HCl, 1 M sodium chloride (NaCl), 0.1 mM magnesium chloride (MgCl2), pH 8. The reactions were initiated by adding 175 μL of the mouse jejunum loop fluid or 175 μL of the 1 M Tris-HCl pH8 buffer for the control reactions. The final concentration of each peptide was 100 μg/mL. The reactions were continuously mixed and maintained at 37° C. on a plate shaker. At 0, 2, 5, 10, 20, 30, 60, 90 and 120 minutes after adding the mouse intestinal loop fluid, a 25 μL aliquot was taken and added to 25 μL of 4° C. 12% trichloroacetic acid to stop the reaction. An additional 200 μL of 0.1% formic acid in water was added to these reactions for dilution purposes. These samples were then further diluted by taking 20 μL of each sample and adding it to 480 μL of 0.1% formic acid in water containing 500 ng/mL of the internal standard 13C, 15N-labeled peptide 2.\nAll samples were analyzed using an Applied Biosystems/MDS SCIEX API 4000 triple quadrupole mass spectrometer equipped with a high-performance liquid chromatography (HPLC) system. The mass spectrometer was operated in multiple reaction monitoring (MRM) mode, with resolution set to 1.2 Da. […]"}, "[2]": {"molecular_target": "T1, Calf intestinal alkaline phosphatase (CIP) (Bos taurus, UniProt P19111)", "T1 construct": "purchased New England BioLabs M0290S", "T1 sequence (P19111 20-506)": "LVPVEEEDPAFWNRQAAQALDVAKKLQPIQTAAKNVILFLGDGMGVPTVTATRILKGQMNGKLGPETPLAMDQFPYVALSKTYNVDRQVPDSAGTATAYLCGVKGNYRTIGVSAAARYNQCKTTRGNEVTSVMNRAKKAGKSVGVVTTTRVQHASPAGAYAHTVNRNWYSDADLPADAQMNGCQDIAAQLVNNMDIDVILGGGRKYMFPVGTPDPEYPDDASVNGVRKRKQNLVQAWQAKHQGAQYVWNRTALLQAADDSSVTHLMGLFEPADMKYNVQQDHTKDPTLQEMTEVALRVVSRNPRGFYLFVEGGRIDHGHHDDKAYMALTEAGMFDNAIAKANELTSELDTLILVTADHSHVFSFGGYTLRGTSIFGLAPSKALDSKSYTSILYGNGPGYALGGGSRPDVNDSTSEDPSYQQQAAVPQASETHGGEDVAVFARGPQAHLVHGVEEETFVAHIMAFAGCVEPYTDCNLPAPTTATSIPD", "assay": "Alkaline phosphatase reaction (dephosphorylation of peptide substrates, LC-MS)", "format": "in vitro ADME", "conditions": "with and without calf intestinal alkaline phosphatase; data not shown", "procedure": "For the alkaline phosphatase reactions, peptide stocks were prepared at 1 mg/mL in 0.1 M Tris-HCl pH 8, which were stored at −20° C. until assays were conducted. For the acid phosphatase reactions, peptide stocks were prepared at 1 mg/mL in 50 mM sodium phosphate pH 6, which was stored at −20° C. until assays were conducted.\nCalf intestinal alkaline phosphatase (CIP) was obtained from New England BioLabs, Ipswich, Mass. Cat #M0290S. The CIP reaction solution was prepared by dilution with buffer (50 mM KCl, 10 mM Tris-HCl pH 8, 1 mM MgCl2, 50% glycerol) to 0.5 units/μL. The alkaline phosphatase reaction solutions were assembled in 20 μL quantities containing: • 2 μL 10× CIP buffer (1M NaCl, 500 mM Tris-HCl pH 8, 100 mM MgCl2) • 2 μL peptide stock (1 mg/mL) • 12 μL H2O • 4 μL alkaline phosphatase (0, 0.5 or 2 units)\nThe reaction solutions were mixed gently and incubated for 90 minutes at 37° C. These reaction solutions were stored at −20° C. until analysis. For analysis, the reaction solutions were diluted from […] of CIP treated peptide to 50 μL with 0.1% formic acid in water to a final concentration of 10 μM.\nControl reactions were assembled for enzyme activity containing 10 mM p-nitrophenylphosphate in place of peptide. After incubation, the reactions were diluted with 0.1 mL of 100 mM borate buffer pH 9 and read at the absorbance of 405 nm to monitor p-nitrophenol appearance."}, "upper GI transit in mice": {"test_system": "upper GI transit in mice", "assay": "Gastrointestinal transit in mice (charcoal meal)", "format": "in vivo", "conditions": "female CD-1 mice; oral gavage; distance travelled by charcoal front, % of small intestine", "procedure": "The purpose of the assay was to test the effect of the guanylate cyclase C agonist peptides on in vivo gastrointestinal transit in mice.\nFor the assay, female CD-1 mice (n=10 per group) weighing 25-30 g were fasted overnight and given access to water ad libitum. Activated charcoal (20 g; 100 mesh; Sigma cat #242276) was suspended in 200 mL gum arabic (100 mg/mL), and stirred for at least one hour. Test peptides were prepared in a 20 mM Tris pH 6.9 vehicle.\nTest peptide and vehicle were administered in 200 μL doses by oral gavage. Seven minutes after dosing the test peptides, 200 μL of the charcoal/gum arabic suspension was dosed by oral gavage. […] The total length of the small intestine was measured from the pyloric junction to the ileocaecal junction. The distance travelled by the charcoal was measured from the pyloric junction to the charcoal front. The Distance Travelled (%) was determined as (distance travelled by charcoal/total length of the small intestine)×100. Data were entered into the GraphPad Prism software program and analyzed by ANOVA using a Bonferroni multiple comparison test post-hoc. Plots of data and ED50 were also determined using the GraphPad Prism software package.\nThe dose-dependent effects of acute doses of Peptide 4, Peptide 1, Peptide 2, the dephosphorylated form of Peptide 1 and the dephosphorylated form of Peptide 2 on GI transit were determined in female CD mice. […]"}, "[3]": {"test_system": "ligated rat duodenal loops", "assay": "Fluid secretion in rat intestinal loops", "format": "in vivo", "conditions": "2.5 μg of peptide per loop", "procedure": "The effect of GC-C agonist peptides on secretion were studied by injecting GC-C agonist peptides described herein directly into an isolated loop in wild-type rats.\nLoops were isolated by surgically ligating three loops in the small intestine of the rat. The methodology for ligated loop formation was similar to that described in (London et al., 1997, Am J Physiol, p. G93-105). The loops were roughly centered and at lengths of 1-3 cm. The loops were injected with 200 μl of either peptide/GC-C agonist (0.1-5 μg) or vehicle (20 mM Tris, pH 7.5 or Krebs Ringer, 10 mM Glucose, HEPES buffer (KRGH)). Following a recovery time of up to 90 minutes the loops were excised. Weights were recorded for each loop before and after removal of the fluid contained therein. The length of each loop was also recorded. A weight to length ratio (W/L) for each loop was calculated to determine the effects of the GC-C agonist peptide described herein on secretion. Loop fluid volume was also determined.\nData showing increases in fluid secretion, pH increase and bicarbonate secretion in ligated duodenal loops in rats are shown in FIG. 2 and Table 8. […] Table 8 provides the results in ligated rat duodenal loops using 2.5 μg of peptide per loop."}}, "note": "Positions of bridges follow the written chain, without caps; N, C: chain ends. Non-standard residues stand in square brackets, D forms with d. Residues, ends and D or L forms follow the SMILES beside them. pS = N[C@@H](COP(=O)(O)O)C(=O)O", "data": [{"compound": "CC(C)C[C@@H]1NC(=O)[C@H](CO)NC(=O)[C@@H]2CSSC[C@@H]3NC(=O)[C@H](C)NC(=O)[C@@H]4CCCN4C(=O)[C@H](CC(N)=O)NC(=O)[C@H](CSSC[C@H](N)C(=O)N2)NC(=O)[C@H](CSSC[C@@H](C(=O)O)NC(=O)CNC(=O)[C@H]([C@@H](C)O)NC3=O)NC1=O", "note": "[Dephospho-Peptide 2, CCSLCCNPACTGC] (H-CCSLCCNPACTGC-OH; disulfide 1-6, 2-10, 5-13 (inferred); N-terminus and C-terminus assumed)", "values": [{"measurement": "Rate of degradation relative to peptide 2", "setting": "[1]", "value": "degraded faster in mouse intestinal fluid than peptide 2"}]}, {"compound": "CC(C)C[C@@H]1NC(=O)[C@H](COP(=O)(O)O)NC(=O)[C@@H]2CSSC[C@@H]3NC(=O)[C@H](C)NC(=O)[C@@H]4CCCN4C(=O)[C@H](CC(N)=O)NC(=O)[C@H](CSSC[C@H](N)C(=O)N2)NC(=O)[C@H](CSSC[C@@H](C(=O)O)NC(=O)CNC(=O)[C@H]([C@@H](C)O)NC3=O)NC1=O", "note": "[Peptide 2, CCpSLCCNPACTGC] (H-CC[pS]LCCNPACTGC-OH; disulfide 1-6, 2-10, 5-13 (inferred); N-terminus and C-terminus assumed)", "values": [{"measurement": "Metabolite formation", "setting": "[1]; mouse jejunum loop fluid at 37° C.", "value": "Formation of dephospho-peptide 2 was observed"}]}, {"compound": "CC(C)C[C@@H]1NC(=O)[C@H](CCC(=O)O)NC(=O)[C@@H]2CSSC[C@@H]3NC(=O)[C@H](C)NC(=O)[C@@H]4CCCN4C(=O)[C@H](CC(N)=O)NC(=O)[C@H](CSSC[C@H](N)C(=O)N2)NC(=O)[C@H](CSSC[C@@H](C(=O)N[C@@H](Cc2ccc(O)cc2)C(=O)O)NC(=O)CNC(=O)[C@H]([C@@H](C)O)NC3=O)NC1=O", "note": "[Peptide 3, CCELCCNPACTGCY] (H-CCELCCNPACTGCY-OH; disulfide 1-6, 2-10, 5-13 (inferred); N-terminus and C-terminus assumed)", "values": [{"measurement": "Effect of CIP treatment on peptide (LC-MS)", "setting": "[2]", "value": "not affected"}, {"measurement": "Rate of degradation relative to peptide 2", "setting": "[1]", "value": "degraded faster in mouse intestinal fluid than peptide 2"}, {"measurement": "Peptide remaining (detection)", "setting": "[1]; mouse jejunum fluid, after 90 minutes, 37° C.", "value": "not detected"}]}, {"compound": "CCEFCCNPACTGCY (Synthetically generated peptide (Peptide 4))", "values": [{"measurement": "ED50, acceleration of upper GI transit in mice", "setting": "upper GI transit in mice", "value": 2.06, "unit": "µg/kg"}, {"measurement": "Rate of HCO3− accumulation", "setting": "[3]", "value": 0.00008, "unit": "Meq/min/cm"}, {"measurement": "Rate of fluid accumulation", "setting": "[3]", "value": 2.0, "unit": "µL/min/cm"}, {"measurement": "pH", "setting": "[3]", "value": 8.2}]}]}
